Assay results reported in PubChem BioAssay (NCI).
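Test compounds were applied to cells in 96-well plates for 48 hours at 5 doses. TGI denotes the concentration required for complete inhibition of growth.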

Legend:
Assay in all cases: NCI anticancer screen, dose series, 48 h
786-0 renal = tested on: 786-0 renal
A549 NSCLC = tested on: A549 NSCLC
DU-145 prostate = tested on: DU-145 prostate
HOP-62 NSCLC = tested on: HOP-62 NSCLC
HS 578T breast = tested on: HS 578T breast
KM12 colon = tested on: KM12 colon
LOX IMVI melanoma = tested on: LOX IMVI melanoma
MDA-MB-231 breast = tested on: MDA-MB-231 breast
NCI-H226 lung = tested on: NCI-H226 lung
NCI-H460 lung = tested on: NCI-H460 lung
NCI-H522 lung = tested on: NCI-H522 lung
OVCAR-3 ovarian = tested on: OVCAR-3 ovarian
OVCAR-5 ovarian = tested on: OVCAR-5 ovarian
OVCAR-8 ovarian = tested on: OVCAR-8 ovarian
RPMI-8226 leukemia = tested on: RPMI-8226 leukemia
SF-295 CNS = tested on: SF-295 CNS
SN12C renal = tested on: SN12C renal
T-47D breast = tested on: T-47D breast
UACC-62 melanoma = tested on: UACC-62 melanoma
SK-OV-3 ovarian = tested on: SK-OV-3 ovarian

SMILES	TGI (786-0 renal) [µM]	TGI (A549 NSCLC) [µM]	TGI (DU-145 prostate) [µM]	TGI (HOP-62 NSCLC) [µM]	TGI (HS 578T breast) [µM]	TGI (KM12 colon) [µM]	TGI (LOX IMVI melanoma) [µM]	TGI (MDA-MB-231 breast) [µM]	TGI (NCI-H226 lung) [µM]	TGI (NCI-H460 lung) [µM]	TGI (NCI-H522 lung) [µM]	TGI (OVCAR-3 ovarian) [µM]	TGI (OVCAR-5 ovarian) [µM]	TGI (OVCAR-8 ovarian) [µM]	TGI (RPMI-8226 leukemia) [µM]	TGI (SF-295 CNS) [µM]	TGI (SN12C renal) [µM]	TGI (T-47D breast) [µM]	TGI (UACC-62 melanoma) [µM]	TGI (SK-OV-3 ovarian) [µM]
COc1cc(NS(C)(=O)=O)ccc1Nc1cc[nH]c2ccc3nccc3c12	27.7	34.9	27.7	30.6	> 100	28.2	36	25	36.9	34.5	22.6	29.4	30.8	28.8	31.7	32.9	28.2	33.2	32.5	–
Cc1cn([C@@H]2C[C@@H]2CO)c(=O)[nH]c1=O	> 100	> 100	> 100	> 100	> 100	> 100	> 100	> 100	> 100	> 100	> 100	–	> 100	> 100	> 100	–	> 100	> 100	> 100	–
Oc1ccc(O)c(CNc2ccc(C(O)C(F)(F)F)cc2)c1 (centres undefined)	29	> 100	28.5	43	> 100	–	32.2	33.7	84.1	47.3	5.67	15.4	40.8	> 100	–	32.5	47.5	61.5	35.8	> 100
O=c1oc2ccccc2nc1/C=C(\O)c1ccc(Cl)cc1	> 100	> 100	> 100	> 100	> 100	> 100	–	> 100	> 100	> 100	> 100	> 100	> 100	> 100	–	> 100	> 100	> 100	> 100	> 100
O=c1[nH]c(=O)n(COCc2ccccc2)c2ccsc12	> 100	> 100	> 100	> 100	> 100	> 100	> 100	> 100	> 100	> 100	> 100	–	> 100	> 100	> 100	–	> 100	> 100	–	–
C[C@@H](c1ccccc1)n1c(N)c(-c2ccccn2)c2ccc([N+](=O)[O-])cc2c1=O	> 100	> 100	> 100	–	> 100	> 100	> 100	> 100	> 100	> 100	> 100	–	–	> 100	–	–	> 100	> 100	> 100	–
O=C(O)CN1C=C(C(=O)c2cc3ccccc3n2S(=O)(=O)c2ccccc2)CCC1	> 100	> 100	> 100	> 100	> 100	> 100	> 100	> 100	> 100	> 100	–	> 100	> 100	> 100	–	> 100	–	> 100	> 100	–
CC(C)=CCC[C@@H](C)/C=C/C=C(\C)C(=O)CC[C@@H]1CC[N@+]2(C)CCCC[C@H]12	> 100	> 100	> 100	> 100	> 100	> 100	> 100	> 100	> 100	> 100	> 100	> 100	> 100	> 100	> 100	> 100	> 100	> 100	> 100	–
Cc1nc(N)c(N2CCN(C(=O)O)CC2)c(=O)[nH]1	> 100	> 100	> 100	> 100	> 100	> 100	> 100	> 100	> 100	> 100	> 100	> 100	> 100	> 100	> 100	> 100	> 100	> 100	–	–
CC(C)(O)/C=C\P(=O)(O)O	> 100	> 100	> 100	> 100	> 100	> 100	> 100	–	> 100	> 100	> 100	> 100	> 100	> 100	–	> 100	> 100	> 100	> 100	> 100
CC#CC(O)(C(=O)OCCCN(C)C)C1CCCCC1 (centres undefined)	> 100	> 100	> 100	> 100	> 100	> 100	> 100	> 100	> 100	> 100	–	> 100	> 100	> 100	> 100	> 100	> 100	> 100	> 100	> 100
Cc1cc2c(c(C=Nc3ccccc3O)c1)OC1(C=C2)Oc2ccccc2C(=O)N1C (centres undefined)	37.5	70.8	39.9	66.3	55.3	41.3	25.4	37.5	36.4	30.6	–	29.4	30	43.6	84.3	68.2	46.5	8.45	36.2	58.4
COc1ccc(N=NC(=O)NC(Cc2ccccc2)C(=O)O)cc1 (centres undefined)	> 100	> 100	> 100	> 100	> 100	> 100	> 100	–	> 100	> 100	> 100	> 100	> 100	> 100	> 100	> 100	> 100	> 100	> 100	–
